ChEMBL document CHEMBL5143546, “Synthesis and biological evaluation of quinolone derivatives as transthyretin amyloidogenesis inhibitors and fluorescence sensors” (Bioorg Med Chem, 2022)

Legend:
[1] = target: T1, Transthyretin (Homo sapiens, UniProt P02766); experiment: Inhibition of wild-type Transthyretin (unknown origin) expressed in Escherichia coli expression system assessed as acid mediated fibril formation at 7.2 uM measured after 72 hrs by UV-vis spectrophotometry; design: scale not given: the % may be the effect or the level left
[2] = test system: Transthyretin (Homo sapiens), P02766 [V50M]; experiment: Inhibition of Transthyretin V30M mutant (unknown origin) assessed as acid mediated fibril formation at 3.6 uM measured after 72 hrs by UV-vis spectrophotometry; design: scale not given: the % may be the effect or the level left
[3] = target: T1, Transthyretin; experiment: Inhibition of wild-type Transthyretin (unknown origin) expressed in Escherichia coli expression system assessed as acid mediated fibril formation at 3.6 uM measured after 72 hrs by UV-vis spectrophotometry; design: scale not given: the % may be the effect or the level left
[4] = Metabolic stability in rat liver microsome assessed as half life at 1 uM by LC-MS/MS analysis; assay type: ADME; settings: liver microsomes
[5] = Metabolic stability in rat plasma assessed as half life at 1 uM by LC-MS/MS analysis; assay type: ADME, cell-free
[6] = target: T1, Transthyretin; experiment: Inhibition of urea-induced Transthyretin denaturation in human plasma preincubated for 1 hr followed by urea addition by Western blot analysis; assay type: cell-free
[7] = Metabolic stability in rat plasma assessed as percentage of compound remaining at 1 uM measured after 1 hr by LC-MS/MS analysis; assay type: ADME, cell-free; settings: read-out: Stability
[8] = test system: Transthyretin (Homo sapiens), P02766 [V50M]; experiment: Inhibition of Transthyretin V30M mutant (unknown origin) assessed as acid mediated fibril formation at 1.8 uM measured after 72 hrs by UV-vis spectrophotometry; design: scale not given: the % may be the effect or the level left
[9] = Metabolic stability in human liver microsome assessed as percentage of compound remaining at 1 uM measured after 30 min by LC-MS/MS analysis; assay type: ADME; settings: liver microsomes, read-out: Stability
[10] = Metabolic stability in human liver microsome assessed as half life at 1 uM by LC-MS/MS analysis; assay type: ADME; settings: liver microsomes
[11] = Metabolic stability in rat liver microsome assessed as percentage of compound remaining at 1 uM measured after 30 min by LC-MS/MS analysis; assay type: ADME; settings: liver microsomes, read-out: Stability

Q: Which Activity [1] does the source give for `O=C(O)c1ccc2nc(-c3cc(Cl)cc(Cl)c3)oc2c1` here?
A: 3.6%

Q: What about the Activity [2] of the same compound?
A: 15.9%

Q: Which Activity [1] does the source give for `Cc1n[nH]c(C)c1CCc1c(C)c2ccc(N)cc2n(C)c1=O` here?
A: 11.6%

Q: And the Activity [3]?
A: 34.8%

Q: For `Cc1cc(/C=C/c2c(C)c3ccc(N)cc3n(C)c2=O)cc(C)c1O`, which half-life at 1 µM [4] is on record?
A: 0.603 h

Q: What about the half-life at 1 µM [5] of the same compound?
A: ≥ 10 h

Q: What about the IC50 [6] of the same compound?
A: 3.1 µM

Q: What about the remaining at 1 h, 1 µM [7] of the same compound?
A: ≥ 100%

Q: And the Activity [1]?
A: 3.4%

Q: And the Activity [2]?
A: 16.7%

Q: What about the Activity [3] of the same compound?
A: 12.8%

Q: And the Activity [8]?
A: 49.6%

Q: What about the remaining at 0.5 h, 1 µM [9] of the same compound?
A: 76.9%

Q: And the half-life at 1 µM [10]?
A: 1.59 h

Q: And the remaining at 0.5 h, 1 µM [11]?
A: 57.2%

Q: With `Cc1cc(/C=C/c2c(C)c3ccc(O)cc3n(C)c2=O)cc(C)c1O` as the compound, how does the Activity [1] read?
A: 5.9%

Q: What about the Activity [3] of the same compound?
A: 24.5%

Q: Which Activity [1] does the source give for `Cc1n[nH]c(C)c1/C=C/c1c(C)c2ccc(N)cc2n(C)c1=O` here?
A: 1.8%

Q: What about the Activity [3] of the same compound?
A: 28.1%

Q: Which results are given for `COc1cc2c(C)c(CCc3cc(C)c(O)c(C)c3)c(=O)n(C)c2cc1N`?
A: Activity [1]: 2.5%; Activity [3]: 31.8%

Q: Which results are given for `Cc1cc(CCc2c(C)c3ccc(N)cc3n(C)c2=O)cc(C)c1O`?
A: IC50 [6]: 14.4 µM; Activity [1]: 2.3%; Activity [2]: 22.1%; Activity [3]: 16.4%; Activity [8]: 54.8%

Q: Which half-life at 1 µM [4] does the source give for `COc1cc2c(C)c(/C=C/c3cc(C)c(O)c(C)c3)c(=O)n(C)c2cc1N` here?
A: 0.758 h

Q: And the half-life at 1 µM [5]?
A: 2.33 h

Q: And the IC50 [6]?
A: 11.4 µM

Q: And the remaining at 1 h, 1 µM [7]?
A: 86.8%

Q: And the Activity [1]?
A: 6%

Q: And the Activity [2]?
A: 22.9%

Q: And the Activity [3]?
A: 15.7%

Q: And the Activity [8]?
A: 55.3%

Q: What about the remaining at 0.5 h, 1 µM [9] of the same compound?
A: 71.5%

Q: What about the half-life at 1 µM [10] of the same compound?
A: 1.01 h

Q: And the remaining at 0.5 h, 1 µM [11]?
A: 59.9%

Q: What does the source list for `Cc1cc(CCc2c(C)c3ccc(O)cc3n(C)c2=O)cc(C)c1O`?
A: IC50 [6]: 13.7 µM; Activity [1]: 3.1%; Activity [2]: 26.5%; Activity [3]: 20.8%; Activity [8]: 56.6%

Q: With `COc1cc2c(C)c(/C=C/c3c(C)n[nH]c3C)c(=O)n(C)c2cc1N` as the compound, how does the Activity [1] read?
A: 14.3%
